Laboratory results as given in patent publication US8883763B2 (Universite Joseph Fourier, priority 2010, dated 2014).

Tested on: HeLa cells
Assay: Indirect immunofluorescence: effect on HeLa cells (mitotic arrest, microtubule depolymerization)
Type: cell-based, human
Set-up: key to Effect on Hela at 25 μM / Effect on Hela at 100 μM / Effect on Hela at 50 and 100 μM / Effect on Hela at 50 μM: —: −: no activity on the cells at 25 μM (if there is an effect at high concentrations, this is specified in the table).; *: weak activity (MA and/or slight depolymerization of the MTs and/or slight inhibition of proliferation),; **: average activity (MA and/or moderate depolymerization of the MTs and/or moderate inhibition of proliferation),; ***: strong activity (MA and/or pronounced depolymerization of the MTs and/or pronounced inhibition of proliferation),; ****: very strong activity (MA and/or very pronounced depolymerization of the MTs and/or strong inhibition of proliferation)
Details: 25 μM, 24 hours; mitotic index and/or depolymerization of the MTs
In short: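 HeLa cells exposed 24 h to compound (100 μM to 50 nM; primary series 1–10 μM), DMSO controls. PFA/glutaraldehyde-fixed cells immunostained for α-tubulin, actin (phalloidin) and DNA (Hoechst); fluorescence microscopy scored phenotypes and mitotic index, with mitotic index and/or MT depolymerization evaluated at 25 μM.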
In the case of `COc1ccc(-c2[nH]c(=O)c3cc(OC)ccc3c2Br)cc1` [Compound 15, 4-Bromo-7-methoxy-3-(4-methoxyphenyl)isoquinoline-1(2H)-one], the “Effect on Hela at 25 μM” value is reported as “***”.
For `COc1ccc(-c2nc(NCc3ccccc3)c3cc(OC)ccc3c2[N+](=O)[O-])cc1` [Compound 22, N-Benzyl-N-[7-methoxy-3-(4-methoxyphenyl)-4-nitroisoquinoline-1-yl]-amine], the “Effect on Hela at 25 μM” value was “—”.
For `COc1ccc(-c2nc(OC)c3cc(OC)ccc3c2Br)cc1` [Compound 27, 4-Bromo-1,7-Dimethoxy-3-(4-methoxyphenyl)isoquinoline], the “Effect on Hela at 25 μM” value was “—”.
For `COc1ccc2cc(-c3ccc(O)cc3)[nH]c(=O)c2c1` [Compound 45, 3-(4-Hydroxyphenyl)-7-methoxyisoquinolin-1(2H)-one], the “Effect on Hela at 25 μM” value was “****”.
With `C#Cc1c(-c2ccc(OC)cc2)nc(OC)c2cc(OC)ccc12` [Compound 38, 4-Ethynyl-1,7-dimethoxy-3-(4-methoxyphenyl)isoquinoline] the “Effect on Hela at 25 μM” value was “—”.
With `COc1ccc(-c2[nH]c(=O)c3cc(OC)ccc3c2C=O)cc1` [Compound 25, 7-Methoxy-3-(4-methoxyphenyl)isoquinoline-1(2H)-one-4-carbaldehyde] the “Effect on Hela at 25 μM” value was “****”.
With `C#Cc1ccc(-c2[nH]c(=O)c3cc(OC)ccc3c2[N+](=O)[O-])cc1` [Compound 36, 3-(4-Ethynylphenyl)-7-methoxy-4-nitroisoquinolin-1(2H)-one] the “Effect on Hela at 25 μM” value was “****”.
With `COc1ccc(-c2c([N+](=O)[O-])c3ccc(OC)cc3c(=O)n2CC#N)cc1` [Compound 30, 2-(7-Methoxy-3-(4-methoxyphenyl)-4-nitro-1-oxoisoquinolin-2(1H)-yl)ethanenitrile] the “Effect on Hela at 25 μM” value was “—”.
In the case of `COc1ccc(-c2cc3ccc(OC)cc3c(=S)[nH]2)cc1` [Compound 12, 7-Methoxy-3-(4-methoxyphenyl)isoquinoline-1(2H)-thione], the “Effect on Hela at 25 μM” value is reported as “—”.

Same assay, conditions: 100 μM, 24 hours
For `COc1ccc(-c2cc3ccc(OC)cc3c(=S)[nH]2)cc1` [Compound 12, 7-Methoxy-3-(4-methoxyphenyl)isoquinoline-1(2H)-thione], the “Effect on Hela at 100 μM” value was “*”.

Tested on: HMEC cells
Assay: Proliferation of HMEC cells (GI50)
Type: cell-based
Details: Homo sapiens, 120 h, 50 μM to 1 nM for 5 days
In short: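 Cells seeded at 1,000/well (10% confluence) and exposed 5 days (120 h) to compound from 1 nM up to 50–100 μM. Live cells counted by Hoechst 33342 staining under fluorescence microscopy; GI50 is concentration halving proliferation versus control, mean of two triplicate experiments.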
`COc1ccc(-c2[nH]c(=O)c3cc(OC)ccc3c2Br)cc1` [Compound 15, 4-Bromo-7-methoxy-3-(4-methoxyphenyl)isoquinoline-1(2H)-one] gave a GI50 of 0.1 to 1 µM.
`COc1ccc(-c2nc(NCc3ccccc3)c3cc(OC)ccc3c2[N+](=O)[O-])cc1` [Compound 22, N-Benzyl-N-[7-methoxy-3-(4-methoxyphenyl)-4-nitroisoquinoline-1-yl]-amine] showed a GI50 greater than 50 µM.
`COc1ccc(-c2nc(OC)c3cc(OC)ccc3c2Br)cc1` [Compound 27, 4-Bromo-1,7-Dimethoxy-3-(4-methoxyphenyl)isoquinoline] gave a GI50 of 25 to 50 µM.
For `COc1ccc2cc(-c3ccc(O)cc3)[nH]c(=O)c2c1` [Compound 45, 3-(4-Hydroxyphenyl)-7-methoxyisoquinolin-1(2H)-one], the GI50 was 0.1 to 1 µM.
In the case of `C#Cc1c(-c2ccc(OC)cc2)nc(OC)c2cc(OC)ccc12` [Compound 38, 4-Ethynyl-1,7-dimethoxy-3-(4-methoxyphenyl)isoquinoline], the GI50 is reported as greater than 50 µM.
With `COc1ccc(-c2[nH]c(=O)c3cc(OC)ccc3c2C=O)cc1` [Compound 25, 7-Methoxy-3-(4-methoxyphenyl)isoquinoline-1(2H)-one-4-carbaldehyde] the GI50 was 0.1 to 1 µM.
Work on `C#Cc1ccc(-c2[nH]c(=O)c3cc(OC)ccc3c2[N+](=O)[O-])cc1` [Compound 36, 3-(4-Ethynylphenyl)-7-methoxy-4-nitroisoquinolin-1(2H)-one] yielded a GI50 of no more than 0.1 µM.
`COc1ccc(-c2c([N+](=O)[O-])c3ccc(OC)cc3c(=O)n2CC#N)cc1` [Compound 30, 2-(7-Methoxy-3-(4-methoxyphenyl)-4-nitro-1-oxoisoquinolin-2(1H)-yl)ethanenitrile] showed a GI50 greater than 50 µM.
For `COc1ccc(-c2cc3ccc(OC)cc3c(=S)[nH]2)cc1` [Compound 12, 7-Methoxy-3-(4-methoxyphenyl)isoquinoline-1(2H)-thione], the GI50 was 1 to 25 µM.

Tested on: bovine brain tubulin
Assay: In vitro tubulin polymerization test (turbidimetry at 350 nm)
Type: biochemical
Details: molecules at 50 μM, calculated at t=3000 s, DMSO control = 100%
In short: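 Bovine brain tubulin was assembled at 37 °C in BRB80 (80 mM K-PIPES pH 6.8, 1 mM MgCl2, 1 mM EGTA) with 1 mM GTP. The 50 μM tests used compounds at 50 μM, run in triplicate. Turbidity at 350 nm was read at t=3000 s and expressed relative to control taken as 100%.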
With `COc1ccc(-c2[nH]c(=O)c3cc(OC)ccc3c2Br)cc1` [Compound 15, 4-Bromo-7-methoxy-3-(4-methoxyphenyl)isoquinoline-1(2H)-one] the Tubulin polymerization inhibition was “++ ((++) signifies that the molecule induces tubulin assembly inhibition in vitro comprised between 26 and 50% of the DMSO control.)”.
In the case of `COc1ccc(-c2nc(NCc3ccccc3)c3cc(OC)ccc3c2[N+](=O)[O-])cc1` [Compound 22, N-Benzyl-N-[7-methoxy-3-(4-methoxyphenyl)-4-nitroisoquinoline-1-yl]-amine], the Tubulin polymerization inhibition is reported as “+ ((+) signifies that the molecule induces tubulin assembly inhibition in vitro comprised between 6 and 25% of the DMSO control.)”.
In the case of `COc1ccc(-c2nc(OC)c3cc(OC)ccc3c2Br)cc1` [Compound 27, 4-Bromo-1,7-Dimethoxy-3-(4-methoxyphenyl)isoquinoline], the Tubulin polymerization inhibition is reported as “+ ((+) signifies that the molecule induces tubulin assembly inhibition in vitro comprised between 6 and 25% of the DMSO control.)”.
With `COc1ccc2cc(-c3ccc(O)cc3)[nH]c(=O)c2c1` [Compound 45, 3-(4-Hydroxyphenyl)-7-methoxyisoquinolin-1(2H)-one] the Tubulin polymerization inhibition was “++ ((++) signifies that the molecule induces tubulin assembly inhibition in vitro comprised between 26 and 50% of the DMSO control.)”.
For `C#Cc1c(-c2ccc(OC)cc2)nc(OC)c2cc(OC)ccc12` [Compound 38, 4-Ethynyl-1,7-dimethoxy-3-(4-methoxyphenyl)isoquinoline], the Tubulin polymerization inhibition was “+ ((+) signifies that the molecule induces tubulin assembly inhibition in vitro comprised between 6 and 25% of the DMSO control.)”.
With `COc1ccc(-c2[nH]c(=O)c3cc(OC)ccc3c2C=O)cc1` [Compound 25, 7-Methoxy-3-(4-methoxyphenyl)isoquinoline-1(2H)-one-4-carbaldehyde] the Tubulin polymerization inhibition was “+++ ((+++) signifies that the molecule induces tubulin assembly inhibition in vitro of more than 50% with respect to the DMSO control.)”.
For `C#Cc1ccc(-c2[nH]c(=O)c3cc(OC)ccc3c2[N+](=O)[O-])cc1` [Compound 36, 3-(4-Ethynylphenyl)-7-methoxy-4-nitroisoquinolin-1(2H)-one], the Tubulin polymerization inhibition was “+++ ((+++) signifies that the molecule induces tubulin assembly inhibition in vitro of more than 50% with respect to the DMSO control.)”.
For `COc1ccc(-c2c([N+](=O)[O-])c3ccc(OC)cc3c(=O)n2CC#N)cc1` [Compound 30, 2-(7-Methoxy-3-(4-methoxyphenyl)-4-nitro-1-oxoisoquinolin-2(1H)-yl)ethanenitrile], the Tubulin polymerization inhibition was “+ ((+) signifies that the molecule induces tubulin assembly inhibition in vitro comprised between 6 and 25% of the DMSO control.)”.
With `COc1ccc(-c2cc3ccc(OC)cc3c(=S)[nH]2)cc1` [Compound 12, 7-Methoxy-3-(4-methoxyphenyl)isoquinoline-1(2H)-thione] the Tubulin polymerization inhibition was “++ ((++) signifies that the molecule induces tubulin assembly inhibition in vitro comprised between 26 and 50% of the DMSO control.)”.

Tested on: not given
Assay: not given
Details: not given
`COc1ccc(-c2[nH]c(=O)c3cc(OC)ccc3c2Br)cc1` [Compound 15, 4-Bromo-7-methoxy-3-(4-methoxyphenyl)isoquinoline-1(2H)-one] showed a melting point of 240 to 242 °C.
`COc1ccc(-c2nc(NCc3ccccc3)c3cc(OC)ccc3c2[N+](=O)[O-])cc1` [Compound 22, N-Benzyl-N-[7-methoxy-3-(4-methoxyphenyl)-4-nitroisoquinoline-1-yl]-amine] gave a melting point of 199 to 201 °C.
`COc1ccc(-c2nc(OC)c3cc(OC)ccc3c2Br)cc1` [Compound 27, 4-Bromo-1,7-Dimethoxy-3-(4-methoxyphenyl)isoquinoline] showed a melting point of 138 to 140 °C.
`COc1ccc2cc(-c3ccc(O)cc3)[nH]c(=O)c2c1` [Compound 45, 3-(4-Hydroxyphenyl)-7-methoxyisoquinolin-1(2H)-one] showed a melting point of 255 °C.
Compound `C#Cc1c(-c2ccc(OC)cc2)nc(OC)c2cc(OC)ccc12` [Compound 38, 4-Ethynyl-1,7-dimethoxy-3-(4-methoxyphenyl)isoquinoline] has a melting point of 209 to 210 °C.
`COc1ccc(-c2[nH]c(=O)c3cc(OC)ccc3c2C=O)cc1` [Compound 25, 7-Methoxy-3-(4-methoxyphenyl)isoquinoline-1(2H)-one-4-carbaldehyde] gave a melting point of 232 °C.
Compound `C#Cc1ccc(-c2[nH]c(=O)c3cc(OC)ccc3c2[N+](=O)[O-])cc1` [Compound 36, 3-(4-Ethynylphenyl)-7-methoxy-4-nitroisoquinolin-1(2H)-one] has a melting point of 246 to 248 °C.
For `COc1ccc(-c2c([N+](=O)[O-])c3ccc(OC)cc3c(=O)n2CC#N)cc1` [Compound 30, 2-(7-Methoxy-3-(4-methoxyphenyl)-4-nitro-1-oxoisoquinolin-2(1H)-yl)ethanenitrile], the melting point was 194 to 196 °C.
Work on `COc1ccc(-c2cc3ccc(OC)cc3c(=S)[nH]2)cc1` [Compound 12, 7-Methoxy-3-(4-methoxyphenyl)isoquinoline-1(2H)-thione] yielded a melting point of 188 to 190 °C.

Molecular target: T1, PP1α (PP1CA) (Oryctolagus cuniculus, UniProt P62139)
T1 construct: purchased New England Biolabs P0754
T1 sequence (P62139 whole entry): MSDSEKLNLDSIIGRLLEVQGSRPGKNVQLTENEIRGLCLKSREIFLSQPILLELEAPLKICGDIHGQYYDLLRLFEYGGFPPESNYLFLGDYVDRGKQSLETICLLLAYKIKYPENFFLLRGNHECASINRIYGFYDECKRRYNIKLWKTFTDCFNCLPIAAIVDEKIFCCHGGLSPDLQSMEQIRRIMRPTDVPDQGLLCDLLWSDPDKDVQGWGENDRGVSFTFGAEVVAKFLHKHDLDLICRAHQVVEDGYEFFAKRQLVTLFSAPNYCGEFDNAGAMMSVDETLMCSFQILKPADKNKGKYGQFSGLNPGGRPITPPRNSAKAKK
Assay: Protein phosphatase test (PP1 activity, DiFMUP fluorescent substrate)
Type: biochemical
Details: PP1CA at 80 mU, fluorescent substrate (50 μM), molecules from 50 μM to 50 nM; read-out: PP1 Inhibition IC50
In short: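 PP1α (30 or 80 mU) in 100 mM Tris-HCl pH 7.5, 4 mM DTT, 0.2 mM EDTA, 0.5 mM MnCl2 was preincubated 15 min with compound (50 μM to 50 nM), then given 60 μM DiFMUP for 20 min at 37 °C. Phosphatase activity was read as fluorescence at 355-460 nm, three times in duplicate.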
With `COc1ccc(-c2[nH]c(=O)c3cc(OC)ccc3c2Br)cc1` [Compound 15, 4-Bromo-7-methoxy-3-(4-methoxyphenyl)isoquinoline-1(2H)-one] the IC50 was greater than 50 µM.
`COc1ccc(-c2nc(NCc3ccccc3)c3cc(OC)ccc3c2[N+](=O)[O-])cc1` [Compound 22, N-Benzyl-N-[7-methoxy-3-(4-methoxyphenyl)-4-nitroisoquinoline-1-yl]-amine] showed an IC50 of no more than 9 µM.
`COc1ccc(-c2nc(OC)c3cc(OC)ccc3c2Br)cc1` [Compound 27, 4-Bromo-1,7-Dimethoxy-3-(4-methoxyphenyl)isoquinoline] gave an IC50 greater than 50 µM.
Compound `COc1ccc2cc(-c3ccc(O)cc3)[nH]c(=O)c2c1` [Compound 45, 3-(4-Hydroxyphenyl)-7-methoxyisoquinolin-1(2H)-one] has an IC50 greater than 50 µM.
Compound `C#Cc1c(-c2ccc(OC)cc2)nc(OC)c2cc(OC)ccc12` [Compound 38, 4-Ethynyl-1,7-dimethoxy-3-(4-methoxyphenyl)isoquinoline] has an IC50 greater than 50 µM.
Compound `COc1ccc(-c2[nH]c(=O)c3cc(OC)ccc3c2C=O)cc1` [Compound 25, 7-Methoxy-3-(4-methoxyphenyl)isoquinoline-1(2H)-one-4-carbaldehyde] has an IC50 of no less than 50 µM.
`C#Cc1ccc(-c2[nH]c(=O)c3cc(OC)ccc3c2[N+](=O)[O-])cc1` [Compound 36, 3-(4-Ethynylphenyl)-7-methoxy-4-nitroisoquinolin-1(2H)-one] gave an IC50 of 10 to 24 µM.
`COc1ccc(-c2c([N+](=O)[O-])c3ccc(OC)cc3c(=O)n2CC#N)cc1` [Compound 30, 2-(7-Methoxy-3-(4-methoxyphenyl)-4-nitro-1-oxoisoquinolin-2(1H)-yl)ethanenitrile] gave an IC50 of no less than 50 µM.
Compound `COc1ccc(-c2cc3ccc(OC)cc3c(=S)[nH]2)cc1` [Compound 12, 7-Methoxy-3-(4-methoxyphenyl)isoquinoline-1(2H)-thione] has an IC50 of no more than 9 µM.
